Literature values in patent publication US7125861B2, “Water-soluble chitosan-indole-3-propionic acid conjugates” (priority 2003, dated 2006).

Settings: background statement on unconjugated indole-3-propionic acid

solubility in water: not water soluble
Structure (SMILES): O=C(O)CCc1c[nH]c2ccccc12 [indole-3-propionic acid, 3-(3-Indolyl)propanoic acid]
